The target in the assay is Activated AMPK complex 1 (containing alpha1beta1gamma1) (Homo sapiens (Human), UniProt Q13131+Q9Y478). Kind of assay: in vitro AMPK activation assay (ADP-Glo Kinase Assay). The class given is biochemical. To be noted: 1 μM peptide substrate, 30 μM ATP, 60 min, room temperature, luminescence. The source says:
Activated AMPK complex 1 (containing alpha1beta1gamma1) was obtained from baculovirus expression system. The gene encoding AMPK alpha1 was cloned into the pACG2T vector (BD Biosciences) to obtain a N-terminal Glutathion S transferase (GST)-fusion protein. The genes encoding AMPK beta 1 and gamma1 were cloned into the p2Bac dual multiple cloning site vector (Invitrogen) with beta1 under the control of the p10 promoter and gamma1 under the control of the PH promoter. The transfer vectors containing AMPK were co-transfected individually with AcPNV BacMagic-3 DNA (EMD Millipore) in Sf9 cells and the recombinant baculoviruses were harvested after 5 days, followed by 3 rounds of amplification of the virus stock in Sf9 cells. AMPK (alpha1beta1gamma1) was expressed in High Five 5 cells by co-infection of recombinant alpha1 virus and recombinant beta1/gamma1 virus for 72 h at 27° C. Cells were harvested by centrifugation and lysed by 3 freeze/thaw cycles in PBS with 10% glycerol and protease inhibitor cocktail (Roche). After centrifugation AMPK a1b1g1 in the supernatant was captured by immobilized glutathione (GE Healthcare), impurities were washed away with PBS and AMPK alpha1beta1gamma1 was eluted with PBS containing 20 mM reduced gluthathione. The protein buffer was then exchanged to PBS with 10% glycerol and protein concentration was determined by UV absorbance.
The white 384-well Optiplates (cat. no. 6007299) were purchased from PerkinElmer. The V9101 ADP-Glo Kinase Assay and ultra pure ATP (V915A) was purchased from Promega. The substrate for AMPK (NH2-HMRSAMSGLHLVKRR_CONH2) was purchased from Upstate (12-355).
Compounds were tested in either serial dilutions or single dose concentrations. The serial compound dilutions were prepared in 100% DMSO automatically. The final DMSO concentration in the assay was 0.1%.
The Compound Stock Solutions were 10 mM in 100% DMSO. The compounds were solubilised at room temperature.
In the 384-well plates 1.25 ul of test compound in assay buffer was mixed with 1.25 ul of AMPK and 1.25 μl of the peptide (final concentration of 1 μM) and 1.25 μl of ATP (final concentration of 30 μM), both dissolved in assay buffer. This step was followed by an incubation time of 60 min. Then 5 μl of ADP Glo Reagent was added. This was followed by 40 min of incubation. Then 10 μl of Kinase Detection Reagent was admixed. The plates were sealed and after an incubation period of 30 min, the luminescence signal was measured in an Envision reader. All incubation steps were accomplished at room temperature.
Each assay microtiter plate contained wells with vehicle controls instead of compound (0.1% DMSO in water) as reference for the low signal (100% CTL, low signal), and wells with serial dilutions of AMP (final 30 μM) as reference for high signals.
The luminescence signal generated was proportional to the ADP concentration produced and was correlated with AMPK activity. The analysis of the data was performed by the calculation of the percentage of ATP consumption of AMPK in the presence of the test compound compared to the consumption of ATP in the presence of AMPK without compound. (RLU(sample)/RLU(low control))*100[RLU=relative luminescence units]
An activator of the AMPK enzyme gave values above 100% CTL.
EC50 values based on dose response curves are calculated with the XIFIT software using the 4 Parameter Logistic Model or Sigmoidal Dose-Response Model.
Activated AMPK complex 1 (containing alpha1beta1gamma1), sequence (Q13131 whole entry, the tested form may be a part): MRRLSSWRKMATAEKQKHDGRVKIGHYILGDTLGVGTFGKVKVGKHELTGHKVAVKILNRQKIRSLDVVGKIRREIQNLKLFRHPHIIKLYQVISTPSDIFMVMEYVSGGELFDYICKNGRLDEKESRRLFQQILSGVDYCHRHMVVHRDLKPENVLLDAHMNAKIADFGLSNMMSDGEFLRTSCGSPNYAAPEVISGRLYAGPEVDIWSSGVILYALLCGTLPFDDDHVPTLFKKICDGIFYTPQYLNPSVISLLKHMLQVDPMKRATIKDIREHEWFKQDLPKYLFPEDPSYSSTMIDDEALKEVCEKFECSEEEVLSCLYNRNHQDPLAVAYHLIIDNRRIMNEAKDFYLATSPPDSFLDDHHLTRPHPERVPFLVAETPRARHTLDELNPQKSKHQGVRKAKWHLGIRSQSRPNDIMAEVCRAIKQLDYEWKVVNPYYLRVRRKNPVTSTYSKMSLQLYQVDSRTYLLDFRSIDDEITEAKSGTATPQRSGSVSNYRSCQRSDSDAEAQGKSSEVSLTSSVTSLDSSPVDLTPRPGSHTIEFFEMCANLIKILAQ
Activated AMPK complex 1 (containing alpha1beta1gamma1), sequence (Q9Y478 whole entry, the tested form may be a part): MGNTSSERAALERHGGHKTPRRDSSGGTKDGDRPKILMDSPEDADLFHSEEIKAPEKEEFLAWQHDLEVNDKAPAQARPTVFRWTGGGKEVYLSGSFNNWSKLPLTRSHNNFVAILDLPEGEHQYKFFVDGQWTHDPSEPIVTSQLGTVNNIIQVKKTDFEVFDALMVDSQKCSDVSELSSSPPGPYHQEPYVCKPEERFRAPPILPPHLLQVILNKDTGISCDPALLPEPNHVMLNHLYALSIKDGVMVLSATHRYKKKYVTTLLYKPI
Activated AMPK complex 1 (containing alpha1beta1gamma1), sequence (P54619 whole entry partner, the tested form may be a part): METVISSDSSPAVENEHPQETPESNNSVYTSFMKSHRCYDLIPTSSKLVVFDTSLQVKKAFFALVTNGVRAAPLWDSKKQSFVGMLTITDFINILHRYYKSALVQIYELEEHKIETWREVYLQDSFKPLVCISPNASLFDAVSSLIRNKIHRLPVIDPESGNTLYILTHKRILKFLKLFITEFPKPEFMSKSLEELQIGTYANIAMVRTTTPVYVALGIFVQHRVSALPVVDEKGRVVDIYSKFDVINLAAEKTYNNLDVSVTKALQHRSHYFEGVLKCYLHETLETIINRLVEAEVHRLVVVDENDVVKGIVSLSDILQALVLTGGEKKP
What is called EC50 is the midpoint of the concentration-response curve. A high value points to weaker potency. In turn, `CS(=O)(=Nc1ccc(-c2ccc(-c3nc4[nH]c(O[C@@H]5CO[C@H]6[C@@H]5OC[C@H]6O)nc4cc3Cl)cc2)cc1)NC1CC1` (stereo partly drawn) [Example 9, N-{4-[4-(2-{[(3R,3aR,6R,6aR)-6-Hydroxy-hexahydrofuro[3,2-b]furan-3-yl]oxy}-6-chloro-3H-imidazo[4,5-b]pyridin-5-yl)phenyl]phenyl}-N′-cyclopropyl-methanesulfonimidamide] gave an EC50 of 89 nM. Compound `CNS(C)(=O)=Nc1ccc(-c2ccc(-c3nc4[nH]c(O[C@@H]5CO[C@H]6[C@@H]5OC[C@H]6O)nc4cc3Cl)cc2)cc1` (stereo partly drawn) [Example 2, N′-{4-[4-(2-{[(3R,3aR,6R,6aR)-6-Hydroxy-hexahydrofuro[3,2-b]furan-3-yl]oxy}-6-chloro-3H-imidazo[4,5-b]pyridin-5-yl)phenyl]phenyl}-N-methyl-methanesulfonimidamide] returned an EC50 of 20 nM. Regarding `CN(C)S(C)(=O)=Nc1ccc(-c2ccc(-c3nc4[nH]c(O[C@@H]5CO[C@H]6[C@@H]5OC[C@H]6O)nc4cc3Cl)cc2)nc1` (stereo partly drawn) [Example 10, N′-{6-[4-(2-{[(3R,3aR,6R,6aR)-6-Hydroxy-hexahydrofuro[3,2-b]furan-3-yl]oxy}-6-chloro-3H-imidazo[4,5-b]pyridin-5-yl)phenyl]pyridin-3-yl}-N,N-dimethyl-methanesulfonimidamide], the EC50 was determined as 17 nM. For `CN(C)S(C)(=O)=Nc1ccc(-c2ccc(-c3nc4[nH]c(O[C@@H]5CO[C@H]6[C@@H]5OC[C@H]6O)nc4cc3Cl)cc2)cc1` (stereo partly drawn) [Example 1, N′-{4-[4-(2-{[(3R,3aR,6R,6aR)-6-Hydroxy-hexahydrofuro[3,2-b]furan-3-yl]oxy}-6-chloro-3H-imidazo[4,5-b]pyridin-5-yl)phenyl]phenyl}-N,N-dimethyl-methanesulfonimidamide] the value was 26 nM; for `CCNS(C)(=O)=Nc1ccc(-c2ccc(-c3nc4[nH]c(O[C@@H]5CO[C@H]6[C@@H]5OC[C@H]6O)nc4cc3Cl)cc2)cc1` (stereo partly drawn) [Example 8, N-{4-[4-(2-{[(3R,3aR,6R,6aR)-6-Hydroxy-hexahydrofuro[3,2-b]furan-3-yl]oxy}-6-chloro-3H-imidazo[4,5-b]pyridin-5-yl)phenyl]phenyl}-N′-ethyl-methanesulfonimidamide], 61 nM; for `CNS(C)(=O)=Nc1ccc(-c2ccc(-c3nc4[nH]c(O[C@@H]5CO[C@H]6[C@@H]5OC[C@H]6O)nc4cc3Cl)cc2)nc1` (stereo partly drawn) [Example 11, N′-{6-[4-(2-{[(3R,3aR,6R,6aR)-6-Hydroxy-hexahydrofuro[3,2-b]furan-3-yl]oxy}-6-chloro-3H-imidazo[4,5-b]pyridin-5-yl)phenyl]pyridin-3-yl}-N-methyl-methanesulfonimidamide], 62 nM. `CS(=O)(=Nc1ccc(-c2ccc(-c3nc4[nH]c(O[C@@H]5CO[C@H]6[C@@H]5OC[C@H]6O)nc4cc3Cl)cc2)cc1)NC1CCC1` (stereo partly drawn) [Example 7, N-{4-[4-(2-{[(3R,3aR,6R,6aR)-6-Hydroxy-hexahydrofuro[3,2-b]furan-3-yl]oxy}-6-chloro-3H-imidazo[4,5-b]pyridin-5-yl)phenyl]phenyl}-N′-cyclobutyl-methanesulfonimidamide] showed an EC50 of 37 nM. The result for `CS(=O)(=Nc1cnc(-c2ccc(-c3nc4[nH]c(O[C@@H]5CO[C@H]6[C@@H]5OC[C@H]6O)nc4cc3Cl)cc2)nc1)N1CCCC1` (stereo partly drawn) [Example 16, (3R,3aR,6R,6aR)-6-({6-Chloro-5-[4-(5-{[methyl(oxo)pyrrolidin-1-yl-λ^6-sulfanylidene]-amino}pyrimidin-2-yl)phenyl]-3H-imidazo[4,5-b]pyridin-2-yl}oxy)-hexahydrofuro[3,2-b]furan-3-ol] reads 48 nM; that for `CN(C)S(=N)(=O)c1ccc(-c2ccc(-c3nc4[nH]c(O[C@@H]5CO[C@H]6[C@@H]5OC[C@H]6O)nc4cc3Cl)cc2)cc1` (stereo partly drawn) [Example 12, 4-[4-(2-{[(3R,3aR,6R,6aR)-6-Hydroxy-hexahydrofuro[3,2-b]furan-3-yl]oxy}-6-chloro-3H-imidazo[4,5-b]pyridin-5-yl)phenyl]-N,N-dimethyl-benzenesulfonimidamide], 2 nM. For `N#CN=S1(=O)CCCN1c1ccc(-c2ccc(-c3nc4[nH]c(O[C@@H]5CO[C@H]6[C@@H]5OC[C@H]6O)nc4cc3Cl)cc2)cc1` (stereo partly drawn) [Example 17, [(2-{4-[4-(2-{[(3R,3aR,6R,6aR)-6-Hydroxy-hexahydrofuro[3,2-b]furan-3-yl]oxy}-6-chloro-3H-imidazo[4,5-b]pyridin-5-yl)phenyl]phenyl}-1-oxo-1λ^6,2-thiazolidin-1-ylidene)amino]carbonitrile], the EC50 was 202 nM.

As for `CN=S(=O)(NC)c1ccc(-c2ccc(-c3nc4[nH]c(O[C@@H]5CO[C@H]6[C@@H]5OC[C@H]6O)nc4cc3Cl)cc2)cc1` (stereo partly drawn) [Example 18, 4-[4-(2-{[(3R,3aR,6R,6aR)-6-hydroxy-hexahydrofuro[3,2-b]furan-3-yl]oxy}-6-chloro-3H-imidazo[4,5-b]pyridin-5-yl)phenyl]-N,N′-dimethyl-benzenesulfonimidamide], the EC50 was found to be 67 nM. `CN(C)S(C)(=O)=NCc1ccc(-c2ccc(-c3nc4[nH]c(O[C@@H]5CO[C@H]6[C@@H]5OC[C@H]6O)nc4cc3Cl)cc2)cc1` (stereo partly drawn) [Example 20, N′—({4-[4-(2-{[(3R,3aR,6R,6aR)-6-Hydroxy-hexahydrofuro[3,2-b]furan-3-yl]oxy}-6-chloro-3H-imidazo[4,5-b]pyridin-5-yl)phenyl]phenyl}methyl)-N,N-dimethyl-methanesulfonimidamide]: the EC50 worked out at 82 nM. The result for `CC(C)NS(C)(=O)=Nc1ccc(-c2ccc(-c3nc4[nH]c(O[C@@H]5CO[C@H]6[C@@H]5OC[C@H]6O)nc4cc3Cl)cc2)cc1` (stereo partly drawn) [Example 3, N′-{4-[4-(2-{[(3R,3aR,6R,6aR)-6-Hydroxy-hexahydrofuro[3,2-b]furan-3-yl]oxy}-6-chloro-3H-imidazo[4,5-b]pyridin-5-yl)phenyl]phenyl}-N-(propan-2-yl)-methanesulfonimidamide] reads 94 nM; that for `CS(=O)(=Nc1ccc(-c2ccc(-c3nc4[nH]c(O[C@@H]5CO[C@H]6[C@@H]5OC[C@H]6O)nc4cc3Cl)cc2)cc1)N1CCCC1` (stereo partly drawn) [Example 6, (3R,3aR,6R,6aR)-6-({6-Chloro-5-[4-(4-{[methyl(oxo)pyrrolidin-1-yl-λ^6-sulfanylidene]-amino}phenyl)phenyl]-3H-imidazo[4,5-b]pyridin-2-yl}oxy)hexahydrofuro[3,2-b]furan-3-ol], 54 nM; that for `CN(C)S(C)(=O)=Nc1ccc(-c2nc3[nH]c(O[C@@H]4CO[C@H]5[C@@H]4OC[C@H]5O)nc3cc2Cl)cc1` (stereo partly drawn) [Example 21, N′-[4-(2-{[(3R,3aR,6R,6aR)-6-Hydroxy-hexahydrofuro[3,2-b]furan-3-yl]oxy}-6-chloro-3H-imidazo[4,5-b]pyridin-5-yl)phenyl]-N,N-dimethyl-methanesulfonimidamide], 2900 nM. For `N=S1(=O)CCCN1Cc1ccc(-c2ccc(-c3nc4[nH]c(O[C@@H]5CO[C@H]6[C@@H]5OC[C@H]6O)nc4cc3Cl)cc2)cc1` (stereo partly drawn) [Example 14, 2-({4-[4-(2-{[(3R,3aR,6R,6aR)-6-Hydroxy-hexahydrofuro[3,2-b]furan-3-yl]oxy}-6-chloro-3H-imidazo[4,5-b]pyridin-5-yl)phenyl]phenyl}methyl)-1-imino-1λ^6,2-thiazolidin-1-one] the value was 52 nM; for `CS(=O)(=Nc1ccc(-c2ccc(-c3nc4[nH]c(O[C@@H]5CO[C@H]6[C@@H]5OC[C@H]6O)nc4cc3Cl)cc2)cc1)N1CCC1` (stereo partly drawn) [Example 5], 15 nM.

`CCN(C)S(C)(=O)=Nc1ccc(-c2ccc(-c3nc4[nH]c(O[C@@H]5CO[C@H]6[C@@H]5OC[C@H]6O)nc4cc3Cl)cc2)cc1` (stereo partly drawn) [Example 4, N′-{4-[4-(2-{[(3R,3aR,6R,6aR)-6-Hydroxy-hexahydrofuro[3,2-b]furan-3-yl]oxy}-6-chloro-3H-imidazo[4,5-b]pyridin-5-yl)phenyl]phenyl}-N-ethyl-N-methyl-methanesulfonimidamide] returned an EC50 of 52 nM.

The values are drawn from patent US9422312B2, “Azabenzimidazole derivatives” (Boehringer Ingelheim International GmbH, priority 2014, dated 2016).
